Tests used:
B16 [1] = assay: Cytotoxicity against mouse B16 cells after 48 hrs by MTT assay; type: functional, cell-based; conditions: B16, 48 h
B16 [2] = assay: Ratio of propargyl amine IC50 to compound IC50 for mouse B16 cells after 48 hrs by MTT assay; type: functional

**Q.** C#CCNC(=O)c1cn(CCOC(C)=O)nn1 was tested. Which IC50 (B16 [1]) did it give?
**A.** > 100 µM

**Q.** O=C(Nc1ccc(-c2cn(Cc3ccccc3)nn2)cc1)c1cn(Cc2ccccc2)nn1 was tested. Which IC50 (B16 [1]) did it give?
**A.** > 100 µM

**Q.** With CCOC(=O)Cn1cc(-c2ccc(NC(=O)c3cn(Cc4ccccc4)nn3)cc2)nn1 as the molecule, how does the IC50 (B16 [1]) read?
**A.** 36.3 µM

**Q.** With CC(=O)OCCn1cc(-c2ccc(NC(=O)c3cn(Cc4ccccc4)nn3)cc2)nn1 as the molecule, how does the IC50 (B16 [1]) read?
**A.** 13.2 µM

**Q.** For CCOC(=O)Cn1cc(C(=O)Nc2ccc(-c3cn(CCOC(C)=O)nn3)cc2)nn1, which IC50 (B16 [1]) is on record?
**A.** > 100 µM

**Q.** For CC(=O)OCCn1cc(C(=O)Nc2ccc(-c3cn(Cc4ccccc4)nn3)cc2)nn1, which IC50 (B16 [1]) is on record?
**A.** > 100 µM

**Q.** With CCOC(=O)Cn1cc(-c2ccc(NC(=O)c3cn(CCOC(C)=O)nn3)cc2)nn1 as the molecule, how does the IC50 (B16 [1]) read?
**A.** > 100 µM

**Q.** Which IC50 (B16 [1]) does the source give for CC(=O)OCCn1cc(C(=O)Nc2ccc(-c3cn(CCOC(C)=O)nn3)cc2)nn1 here?
**A.** > 100 µM

**Q.** For O=C(Nc1ccccc1)c1cn(Cc2ccccc2)nn1, which IC50 (B16 [1]) is on record?
**A.** 93 µM

**Q.** How did the IC50 (B16 [1]) turn out when CCOC(=O)Cn1cc(C(=O)Nc2ccccc2)nn1 was run?
**A.** > 100 µM

**Q.** For CC(=O)OCCn1cc(C(=O)Nc2ccccc2)nn1, which IC50 (B16 [1]) is on record?
**A.** > 100 µM

**Q.** C#Cc1cccc(NC(=O)c2cn(Cc3ccccc3)nn2)c1 was tested. Which IC50 (B16 [1]) did it give?
**A.** 14.5 µM

**Q.** For C#Cc1cccc(NC(=O)c2cn(CC(=O)OCC)nn2)c1, which IC50 (B16 [1]) is on record?
**A.** 91 µM

**Q.** Which IC50 (B16 [1]) does the source give for C#Cc1cccc(NC(=O)c2cn(CCOC(C)=O)nn2)c1 here?
**A.** 25.1 µM

**Q.** Which IC50 (B16 [1]) does the source give for C#Cc1ccc(NC(=O)c2cn(Cc3ccccc3)nn2)cc1 here?
**A.** > 100 µM

**Q.** Which IC50 (B16 [1]) does the source give for C#Cc1ccc(NC(=O)c2cn(CC(=O)OCC)nn2)cc1 here?
**A.** > 100 µM

**Q.** Which IC50 (B16 [1]) does the source give for C#Cc1ccc(NC(=O)c2cn(CCOC(C)=O)nn2)cc1 here?
**A.** 79 µM

**Q.** O=C(NCc1cn(Cc2ccccc2)nn1)c1cn(Cc2ccccc2)nn1 was tested. Which IC50 (B16 [1]) did it give?
**A.** 0.3 µM

**Q.** With CCOC(=O)Cn1cc(CNC(=O)c2cn(Cc3ccccc3)nn2)nn1 as the molecule, how does the IC50 (B16 [1]) read?
**A.** 35 µM

**Q.** For CC(=O)OCCn1cc(CNC(=O)c2cn(Cc3ccccc3)nn2)nn1, which IC50 (B16 [1]) is on record?
**A.** 28 µM

**Q.** Which IC50 (B16 [1]) does the source give for O=C(Cn1cc(C(=O)NCc2cn(Cc3ccccc3)nn2)nn1)OCc1ccccc1 here?
**A.** 22.4 µM

**Q.** For CCOC(=O)Cn1cc(CNC(=O)c2cn(CC(=O)OCc3ccccc3)nn2)nn1, which IC50 (B16 [1]) is on record?
**A.** > 100 µM

**Q.** Which IC50 (B16 [1]) does the source give for CC(=O)OCCn1cc(CNC(=O)c2cn(CC(=O)OCc3ccccc3)nn2)nn1 here?
**A.** > 100 µM

**Q.** Which IC50 (B16 [1]) does the source give for CC(=O)OCCn1cc(C(=O)NCc2cn(Cc3ccccc3)nn2)nn1 here?
**A.** > 100 µM

**Q.** Which IC50 (B16 [1]) does the source give for CCOC(=O)Cn1cc(CNC(=O)c2cn(CCOC(C)=O)nn2)nn1 here?
**A.** > 100 µM

**Q.** How did the IC50 (B16 [1]) turn out when CC(=O)OCCn1cc(CNC(=O)c2cn(CCOC(C)=O)nn2)nn1 was run?
**A.** > 100 µM

**Q.** Which IC50 (B16 [1]) does the source give for O=C(Nc1cccc(-c2cn(Cc3ccccc3)nn2)c1)c1cn(Cc2ccccc2)nn1 here?
**A.** 4.5 µM

**Q.** How did the IC50 (B16 [1]) turn out when CCOC(=O)Cn1cc(-c2cccc(NC(=O)c3cn(Cc4ccccc4)nn3)c2)nn1 was run?
**A.** 21 µM

**Q.** For CC(=O)OCCn1cc(-c2cccc(NC(=O)c3cn(Cc4ccccc4)nn3)c2)nn1, which IC50 (B16 [1]) is on record?
**A.** 25.1 µM

**Q.** With CCOC(=O)Cn1cc(C(=O)Nc2cccc(-c3cn(Cc4ccccc4)nn3)c2)nn1 as the molecule, how does the IC50 (B16 [1]) read?
**A.** 20.4 µM

**Q.** With CCOC(=O)Cn1cc(C(=O)Nc2cccc(-c3cn(CC(=O)OCC)nn3)c2)nn1 as the molecule, how does the IC50 (B16 [1]) read?
**A.** > 100 µM

**Q.** CCOC(=O)Cn1cc(C(=O)Nc2cccc(-c3cn(CCOC(C)=O)nn3)c2)nn1 was tested. Which IC50 (B16 [1]) did it give?
**A.** > 100 µM

**Q.** How did the IC50 (B16 [1]) turn out when CC(=O)OCCn1cc(C(=O)Nc2cccc(-c3cn(Cc4ccccc4)nn3)c2)nn1 was run?
**A.** > 100 µM

**Q.** For CCOC(=O)Cn1cc(-c2cccc(NC(=O)c3cn(CCOC(C)=O)nn3)c2)nn1, which IC50 (B16 [1]) is on record?
**A.** 63 µM

**Q.** CC(=O)OCCn1cc(C(=O)Nc2cccc(-c3cn(CCOC(C)=O)nn3)c2)nn1 was tested. Which IC50 (B16 [1]) did it give?
**A.** > 100 µM

**Q.** With C#CCNC(=O)C#C as the molecule, how does the IC50 (B16 [1]) read?
**A.** 38 µM

**Q.** Which results are given for C#CC(=O)Nc1cccc(C#C)c1?
**A.** IC50 (B16 [1]): 0.3 µM; Ratio IC50 (B16 [2]): 127

**Q.** Which IC50 (B16 [1]) does the source give for C#CC(=O)Nc1ccc(C#C)cc1 here?
**A.** 6.3 µM

**Q.** How did the IC50 (B16 [1]) turn out when C#CCNC(=O)c1cn(Cc2ccccc2)nn1 was run?
**A.** 65 µM

**Q.** Which IC50 (B16 [1]) does the source give for C#CCNC(=O)c1cn(CC(=O)OCc2ccccc2)nn1 here?
**A.** > 100 µM
